# Measurements from US12496329B2, “Methods of using and compositions including an incretin analog” (Eli Lilly and Company, priority 2021, dated 2025).
# Legend:
# [1] = Phase 2 study for obesity and NAFLD; format: in vivo, human; conditions: 16 week data; dose range 2-12 mg; steps of 1, 2, 3 or 4 mg QW SC
# Excerpt: Studies are designed to further evaluate the effectiveness and safety of the GGG tri-receptor agonist (SEQ ID NO:1) in a larger population of obese individuals or overweight individuals. The study is a randomized, investigator- and participant-blind, placebo-controlled study conducted in obese individuals or overweight individuals without diabetes (i.e., females or males aged 18-75 years, inclusive, with obesity prior to randomization and with a BMI of ≥30 kg/m^2 at screening or overweight prior to randomization and with a BMI of ≥27 kg/m^2 […] <30 kg/m^2 at screening with weight-related comorbidities but without T2DM).
# Dose escalation of the GGG tri-receptor agonist is assessed over 36 weeks in cohorts administered the GGG tri-receptor agonist, dulaglutide or placebo. A first cohort of 60 individuals is administered 2.0 mg of the GGG tri-receptor agonist for Weeks 1-4, 4.0 mg for the Weeks 5-8, 8.0 mg for Weeks 9-12, and then 12.0 mg for […]. […] An additional 125 individuals are assessed for NAFLD, which is characterized by ≥10% liver fat by magnetic resonance imaging proton density fat fraction (MRI-PDFF).
# Body weight is assessed at pre-dose and at Week 24 and at Week 48 for % change in body weight. Mean change in waist circumference (cm) is measured at Week 24 or Week 48. […]
# Phase 2 study for T2DM = format: in vivo, human; conditions: 16 week data; start 1 or 2 mg, steps of 1, 2, 3 or 4 mg to maximum 12 mg QW SC
# Excerpt: Studies are designed to further evaluate the effectiveness and safety of the GGG tri-receptor agonist (SEQ ID NO: 1) in a larger population of individuals with diabetes. The study is a randomized, investigator- and participant-blind, placebo-controlled study conducted in individuals with diabetes (i.e., females or males aged 18-75 years, inclusive, with T2DM for at least 3 months and HbA1c at lead-in and screening of ≥7.0% and ≤10.5% and treated with diet and exercise alone or a stable dose of metformin for at least 3 months prior to screening, with stable body weight for 3 months prior to randomization and with a BMI of 25-50 kg/m^2 at screening).
# Dose escalation of the GGG tri-receptor agonist is assessed over 36 weeks in cohorts administered the GGG tri-receptor agonist, dulaglutide or placebo. A first cohort of 50 individuals is administered 2.0 mg of the GGG tri-receptor agonist for Weeks 1-4, 4.0 mg for the Weeks 5-8, 8.0 mg for Weeks 9-12, and then 12.0 mg for Weeks 13-36. […] A third cohort of 20 individuals is administered 2.0 mg of the GGG tri-receptor agonist for Weeks 1-4, 4.0 mg for Weeks 5-8, and then 8.0 mg for Weeks 9-36. […]
# Blood samples are collected pre-dose and at Week 24 for HbA1c. […] In addition, change in body weight (kg) is assessed from baseline to Week 24 and to Week 36. […]
# [2] = Stability of analyte in stored plasma samples (bioanalytical validation); format: in vitro ADME, human; conditions: about -20° C. and about −70° C.
# Method: Bioanalytical methods: plasma samples are analyzed at Q2 Solutions (Ithaca, NY). The samples are analyzed for the GGG tri-receptor agonist using a validated liquid chromatography high resolution mass spectrometry method. The lower limit of quantification is 1.00 ng/mL and the upper limit of quantification is 500.00 ng/ml. Samples above a limit of quantification are diluted and reanalyzed to yield results within the calibrated range. The intra-assay accuracy (% relative error) during validation ranges from −6.3% to 15.7%. The intra-assay precision (% relative standard deviation) during validation is ≤14.7%. The GGG tri-receptor agonist is stable for up to 96 days when stored at about-20° C. and about −70° C.
structure (smiles),measurement,setting,value
"CC[C@H](C)[C@H](NC(=O)[C@H](Cc1ccccc1)NC(=O)[C@H](C)NC(=O)C(C)(C)NC(=O)[C@H](CCC(N)=O)NC(=O)[C@H](C)NC(=O)[C@H](CCCCNC(=O)COCCOCCNC(=O)CC[C@H](NC(=O)CCCCCCCCCCCCCCCCCCC(=O)O)C(=O)O)NC(=O)[C@H](CCCCN)NC(=O)[C@H](CC(=O)O)NC(=O)[C@H](CC(C)C)NC(=O)[C@](C)(CC(C)C)NC(=O)[C@@H](NC(=O)[C@H](CO)NC(=O)[C@H](Cc1ccc(O)cc1)NC(=O)[C@H](CC(=O)O)NC(=O)[C@H](CO)NC(=O)[C@@H](NC(=O)[C@H](Cc1ccccc1)NC(=O)[C@@H](NC(=O)CNC(=O)[C@H](CCC(N)=O)NC(=O)C(C)(C)NC(=O)[C@@H](N)Cc1ccc(O)cc1)[C@@H](C)O)[C@@H](C)O)[C@@H](C)CC)C(=O)N[C@@H](CCC(=O)O)C(=O)N[C@@H](Cc1ccc(O)cc1)C(=O)N[C@@H](CC(C)C)C(=O)N[C@@H](CC(C)C)C(=O)N[C@@H](CCC(=O)O)C(=O)NCC(=O)NCC(=O)N1CCC[C@H]1C(=O)N[C@@H](CO)C(=O)N[C@@H](CO)C(=O)NCC(=O)N[C@@H](C)C(=O)N1CCC[C@H]1C(=O)N1CCC[C@H]1C(=O)N1CCC[C@H]1C(=O)N[C@@H](CO)C(N)=O [GGG tri-receptor agonist, Y-Aib-QGTFTSDYSI-αMeL-LDKK((2-[2-(2-amino-ethoxy)-ethoxy]-acetyl)-(γGlu)-CO-(CH2)18-CO2H)AQ-Aib-AFIEYLLEGGPSSGAPPPS-NH2]",tolerability profile of dosing regimens,[1],acceptable tolerability profiles
same,tolerability profile of dosing regimens,Phase 2 study for T2DM,acceptable tolerability profiles
same,stability when stored,[2],up to 96 days
